{"source": "patent US11612661B2", "about": "(priority 2019, dated 2023)", "key": {"[1]": {"tested_on": "oxaliplatin-induced peripheral neuropathy", "parameters": "species or system Sprague Dawley rats", "settings": "in vivo"}, "[2]": {"tested_on": "88 receptors, transporters, enzymes and kinases"}, "[3]": {"target": "α7 nAChR (Homo sapiens, UniProt P36544)", "sequence (P36544 23-502 limits assumed)": "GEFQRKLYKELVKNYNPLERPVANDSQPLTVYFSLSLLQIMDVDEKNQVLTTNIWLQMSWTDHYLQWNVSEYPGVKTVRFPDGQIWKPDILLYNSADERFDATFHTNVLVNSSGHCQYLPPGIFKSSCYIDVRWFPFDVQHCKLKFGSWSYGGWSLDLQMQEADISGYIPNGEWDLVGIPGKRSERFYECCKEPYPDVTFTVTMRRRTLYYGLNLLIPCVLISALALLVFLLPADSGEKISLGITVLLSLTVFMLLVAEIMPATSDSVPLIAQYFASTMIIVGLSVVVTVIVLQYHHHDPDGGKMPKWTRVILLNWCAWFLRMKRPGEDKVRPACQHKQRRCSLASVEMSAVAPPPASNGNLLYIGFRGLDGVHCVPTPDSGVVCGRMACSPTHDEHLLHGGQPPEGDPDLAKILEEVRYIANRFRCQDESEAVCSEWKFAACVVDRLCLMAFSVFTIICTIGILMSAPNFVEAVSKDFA", "settings": "read-out: Partial inhibition of the α7 nAChR"}, "[4]": {"target": "human α9α10 nAChR (Homo sapiens, UniProt Q9GZZ6+Q9UGM1)", "sequence (Q9UGM1 26-479 limits assumed)": "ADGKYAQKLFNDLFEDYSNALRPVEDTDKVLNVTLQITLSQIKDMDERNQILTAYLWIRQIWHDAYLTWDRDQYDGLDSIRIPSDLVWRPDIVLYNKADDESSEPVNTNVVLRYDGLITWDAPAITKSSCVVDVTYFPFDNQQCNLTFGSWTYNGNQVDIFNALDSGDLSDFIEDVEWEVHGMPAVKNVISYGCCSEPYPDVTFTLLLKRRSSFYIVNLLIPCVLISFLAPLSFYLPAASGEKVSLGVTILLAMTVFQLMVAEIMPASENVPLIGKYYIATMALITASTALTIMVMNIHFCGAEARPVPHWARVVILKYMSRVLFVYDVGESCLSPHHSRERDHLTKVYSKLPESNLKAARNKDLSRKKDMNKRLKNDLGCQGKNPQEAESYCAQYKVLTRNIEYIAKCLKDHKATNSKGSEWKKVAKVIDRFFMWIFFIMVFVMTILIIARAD", "sequence (Q9GZZ6 25-450 limits assumed)": "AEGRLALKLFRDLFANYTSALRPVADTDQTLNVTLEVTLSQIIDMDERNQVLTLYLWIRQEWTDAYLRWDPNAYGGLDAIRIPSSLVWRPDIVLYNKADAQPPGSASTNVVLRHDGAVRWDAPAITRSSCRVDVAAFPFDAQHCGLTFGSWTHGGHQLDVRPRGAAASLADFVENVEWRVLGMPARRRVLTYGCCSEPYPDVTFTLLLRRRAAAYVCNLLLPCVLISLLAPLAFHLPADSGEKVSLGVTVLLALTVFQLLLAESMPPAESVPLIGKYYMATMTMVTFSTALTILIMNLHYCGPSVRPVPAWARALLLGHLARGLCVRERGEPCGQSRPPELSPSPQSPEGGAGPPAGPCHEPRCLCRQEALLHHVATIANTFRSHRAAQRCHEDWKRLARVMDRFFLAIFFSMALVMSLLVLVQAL", "assay": "cell-based", "format": "cell-based"}, "[5]": {"tested_on": "spared nerve injury", "parameters": "species or system rats", "settings": "rat, in vivo, 0.5 mg/kg"}, "[6]": {"target": "rat α9α10 nAChR (Rattus norvegicus, UniProt P43144+Q9JLB5)", "sequence (P43144 26-479 limits assumed)": "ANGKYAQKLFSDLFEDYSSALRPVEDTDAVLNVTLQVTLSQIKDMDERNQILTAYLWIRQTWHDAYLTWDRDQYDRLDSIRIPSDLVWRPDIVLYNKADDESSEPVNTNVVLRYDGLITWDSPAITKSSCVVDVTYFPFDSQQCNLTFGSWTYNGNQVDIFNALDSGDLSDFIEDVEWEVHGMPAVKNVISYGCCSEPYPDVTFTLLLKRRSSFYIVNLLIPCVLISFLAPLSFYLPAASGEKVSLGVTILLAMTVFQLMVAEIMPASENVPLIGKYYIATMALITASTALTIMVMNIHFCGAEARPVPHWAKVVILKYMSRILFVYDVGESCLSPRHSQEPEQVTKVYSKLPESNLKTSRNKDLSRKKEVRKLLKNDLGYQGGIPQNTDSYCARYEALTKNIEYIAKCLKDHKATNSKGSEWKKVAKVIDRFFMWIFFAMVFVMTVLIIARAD", "sequence (Q9JLB5 25-447 limits assumed)": "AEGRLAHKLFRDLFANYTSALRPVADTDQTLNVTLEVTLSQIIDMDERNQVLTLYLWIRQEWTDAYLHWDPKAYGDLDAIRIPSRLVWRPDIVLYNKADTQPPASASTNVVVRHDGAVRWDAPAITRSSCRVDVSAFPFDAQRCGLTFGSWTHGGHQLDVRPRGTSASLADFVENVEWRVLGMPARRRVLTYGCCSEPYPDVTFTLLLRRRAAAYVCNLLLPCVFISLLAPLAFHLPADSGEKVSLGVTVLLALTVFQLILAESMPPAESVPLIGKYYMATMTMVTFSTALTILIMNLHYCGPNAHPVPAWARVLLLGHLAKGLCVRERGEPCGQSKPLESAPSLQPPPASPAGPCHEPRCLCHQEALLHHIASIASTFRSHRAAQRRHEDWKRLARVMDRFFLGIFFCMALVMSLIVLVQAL", "assay": "cell-based", "format": "cell-based", "settings": "for IC50: α9α10 nAChR IC50 (nM) Rat"}, "[7]": {"tested_on": "α9α10 nAChR", "settings": "cited from earlier work"}, "[8]": {"settings": "24 h"}, "[9]": {"assay": "in vivo", "settings": "male, Sprague Dawley, rat, sc, 1 mg/kg"}, "[10]": {"settings": "rat, in vivo, 1 mg/kg, 1 h"}}, "note": "Values joined by “and” are separate entries in the source; they are usually repeats but may differ in a detail not shown here. Equal values may be shown once. Bridge positions count the residues as written; N and C are the ends. Square brackets hold non-standard residues; d marks the D form. Triazole bridges read from a SMILES are 1,4-linked. Peptide text beside a SMILES is read from it. Orn(N3) = [N-]=[N+]=NCCC[C@H](N)C(=O)O; Cit = NC(=O)NCCC[C@H](N)C(=O)O; Pra = C#CC[C@H](N)C(=O)O"}
{"smiles": "C[C@@H](O)[C@@H]1NC(=O)[C@@H]2Cc3cn(nn3)CCC[C@@H](C(=O)N[C@@H](Cc3ccc(O)cc3)C(N)=O)NC(=O)[C@H](CCC(N)=O)NC(=O)[C@H](Cc3c[nH]c4ccccc34)NC(=O)[C@H](CCCNC(N)=O)NC(=O)[C@H](CSSC[C@H](NC(=O)CN)C(=O)N2)NC(=O)[C@H](CCCNC(=N)N)NC(=O)[C@@H]2CCCN2C(=O)[C@H](CC(=O)O)NC1=O", "note": "[Ia′, L-tyrosinamide, glycyl-L-cysteinyl-L-alanyl-L-threonyl-L-α-aspartyl-L-prolyl-L-arginyl-L-cysteinyl-N5-(aminocarbonyl)-L-ornithyl-L-tryptophyl-L-glutaminyl-L-norvalyl-cyclic (2→8)-disulfide-cyclic 3^3,12^5-(1H-1,2,3-triazole-4,1-diyl)] (H-GC[Pra]TDPRC[Cit]WQ[Orn(N3)]Y-NH2; disulfide 2-8; triazole 3-12)", "values": [{"measurement": "Duration of significant reduction in mechanical hyperalgesia compared to vehicle", "setting": "[1]; rat, 0.5 mg/kg", "value": "up to 24 h"}, {"measurement": "Mechanical hyperalgesia versus vehicle (in words)", "setting": "[1]; rat, sc, 0.5 mg/kg", "value": "statistically significant improvements in mechanical hyperalgesia"}, {"measurement": "Off-target effects in panel of 88 receptors, transporters, enzymes and kinases", "setting": "[2]", "value": "no off-target effects"}, {"measurement": "inhibition at 10 µM", "setting": "[3]", "value": 52, "unit": "%"}, {"measurement": "IC50", "setting": "[4]", "value": "26 ± 4", "unit": "nM"}, {"measurement": "Duration of significant reduction in mechanical hyperalgesia compared to vehicle", "setting": "[5]", "value": "up to 24 h"}, {"measurement": "Mechanical hyperalgesia versus vehicle (in words)", "setting": "[5]; sc", "value": "statistically significant improvement in mechanical hyperalgesia"}, {"measurement": "IC50", "setting": "[6]", "value": "12.6 nM and 7.7 nM"}]}
{"smiles": "N=C(N)NCCC[C@H](NC(=O)[C@@H]1CSSC[C@@H]2NC(=O)[C@@H](NC(=O)CN)CSSC[C@H](NC(=O)[C@H](CCCNC(=N)N)NC(=O)[C@@H]3CCCN3C(=O)[C@H](CC(=O)O)NC(=O)[C@H](CO)NC2=O)C(=O)N[C@@H](CCCNC(=N)N)C(=O)N[C@@H](Cc2ccc(O)cc2)C(=O)N[C@@H](CCCNC(=N)N)C(=O)N1)C(=O)O", "note": "[RgIA]", "values": [{"measurement": "Lower affinity for the human than the rat α9α10 nAChR", "setting": "[7]", "value": "approximately 300 fold"}]}
{"smiles": "C[C@@H](O)[C@@H]1NC(=O)[C@@H]2Cc3cn(nn3)CCC[C@@H](C(=O)N[C@@H](Cc3ccc(O)cc3)C(=O)O)NC(=O)[C@H](CCC(N)=O)NC(=O)[C@H](Cc3c[nH]c4ccccc34)NC(=O)[C@H](CCCNC(N)=O)NC(=O)[C@H](CSSC[C@H](NC(=O)CN)C(=O)N2)NC(=O)[C@H](CCCNC(=N)N)NC(=O)[C@@H]2CCCN2C(=O)[C@H](CC(=O)O)NC1=O", "note": "[Ia, L-tyrosine, glycyl-L-cysteinyl-L-alanyl-L-threonyl-L-α-aspartyl-L-prolyl-L-arginyl-L-cysteinyl-N5-(aminocarbonyl)-L-ornithyl-L-tryptophyl-L-glutaminyl-L-norvalyl-cyclic (2→8) disulfide-cyclic 3^3,12^5-(1H-1,2,3-triazole-4,1-diyl)] (H-GC[Pra]TDPRC[Cit]WQ[Orn(N3)]Y-OH; disulfide 2-8; triazole 3-12)", "values": [{"measurement": "Disulfide rearrangement / stability in plasma and serum (in words)", "setting": "[8]", "value": "single isolated peak on reverse phase HPLC in rat plasma at 0 h, 8 h and 24 h"}, {"measurement": "PD (Rat CIPN) Duration of PD effect", "setting": "[1]", "value": "4 to 24", "unit": "h"}, {"measurement": "PD (Rat CIPN) Required dose to reach max efficacy", "setting": "[1]", "value": 0.5, "unit": "mg/kg"}, {"measurement": "Duration of significant reduction in mechanical hyperalgesia compared to vehicle", "setting": "[1]; rat, 0.5 mg/kg", "value": "up to 4 h"}, {"measurement": "IC50", "setting": "[4]", "value": "0.7 ± 0.03", "unit": "nM"}, {"measurement": "AUC", "setting": "[9]", "value": 981, "unit": "ng·h/mL"}, {"measurement": "AUC(0-t)", "setting": "[9]", "value": 981, "unit": "ng·h/mL"}, {"measurement": "Cmax", "setting": "[9]", "value": 648, "unit": "ng/mL"}, {"measurement": "Tmax", "setting": "[9]", "value": 15, "unit": "min"}, {"measurement": "half-life", "setting": "[9]", "value": 30, "unit": "min"}, {"measurement": "IC50", "setting": "[6]", "value": "14.3 ± 1.8", "unit": "nM"}]}
{"smiles": "C[C@@H](O)[C@@H]1NC(=O)[C@@H]2CSSC[C@@H](C(=O)N[C@@H](Cc3ccc(O)cc3)C(N)=O)NC(=O)[C@H](CCC(N)=O)NC(=O)[C@H](Cc3ccc(O)c(I)c3)NC(=O)[C@H](CCCNC(N)=O)NC(=O)[C@H](CSSC[C@H](NC(=O)CN)C(=O)N2)NC(=O)[C@H](CCCNC(=N)N)NC(=O)[C@@H]2CCCN2C(=O)[C@H](CC(=O)O)NC1=O", "note": "[CSP-4-NH2, reference compound]", "values": [{"measurement": "Recovered peptide from blood remaining in the native form", "setting": "[10]", "value": "40-50%"}, {"measurement": "Activity on the human α9α10 nAChR (in words)", "setting": "[4]", "value": "active"}, {"measurement": "Block of ACh-evoked currents", "setting": "[4]", "value": "> 99", "unit": "%"}, {"measurement": "IC50", "setting": "[4]", "value": "3.5 ± 1.5", "unit": "nM"}, {"measurement": "Percent of 100 μM acetylcholine-induced current remaining in the presence of compound, Mean ± SEM", "setting": "[4]", "value": "0.4 ± 0.11", "unit": "%"}, {"measurement": "Activity on the rat α9α10 nAChR (in words)", "setting": "[6]", "value": "active"}, {"measurement": "IC50", "setting": "[6]", "value": "0.4 ± 0.2", "unit": "nM"}]}
